Measurements reported in patent US8399681B2, “Substituted aminothiazolone indazoles as estrogen related receptor-alpha modulators” (Janssen Pharmaceutica NV, priority 2009, dated 2013).

Molecular target: T1, ERR1 (also known as ERR-α or ERR-1) (Homo sapiens, UniProt P11474)
T1 sequence (P11474 193-421 limits assumed): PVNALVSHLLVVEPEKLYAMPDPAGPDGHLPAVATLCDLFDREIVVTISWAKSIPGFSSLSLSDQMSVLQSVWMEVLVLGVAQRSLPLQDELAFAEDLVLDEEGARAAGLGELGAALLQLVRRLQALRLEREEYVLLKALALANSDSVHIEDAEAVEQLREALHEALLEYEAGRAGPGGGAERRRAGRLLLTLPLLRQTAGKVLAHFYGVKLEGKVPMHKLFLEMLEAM
Assay: TR-FRET assay (disruption of co-activator peptide binding)
Assay type: biochemical
Conditions: 6His-tagged ERR1 LBD, GST-hSRC2 co-activator polypeptide; average of 3 independent experiments
Procedure, shortened: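 Compound-induced loss of co-activator recruitment, read by time-resolved FRET (excitation 340 nm; 615 and 665 nm emission) after 4-18 h at 25 °C. Reagents: 6 nM ERR1LBD, 6 nM GST-SRC-2, 30 nM Eu cryptate, 7.5 nM XL665, pH 8 Tris buffer. Values: hyperbolic fits averaged over 3 independent runs.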

| SMILES | EC50 |
| --- | --- |
| O=C1N=C(N2CC(F)C2)S/C1=C\c1ccc2c(cnn2Cc2ccc(Cl)cc2C(F)(F)F)c1 [Example 149, 5-[1-(4-Chloro-2-trifluoromethyl-benzyl)-1H-indazol-5-ylmethylene]-2-(3-fluoro-azetidin-1-yl)-thiazol-4-one] | 55 nM |
| O=C1N=C(N2C[C@@H](O)[C@H](O)C2)S/C1=C\c1ccc2c(cnn2Cc2ccc(Cl)cc2C(F)(F)F)c1 [Example 99, 5-[1-(4-Chloro-2-trifluoromethyl-benzyl)-1H-indazol-5-ylmethylene]-2-(3R,4R-dihydroxy-pyrrolidin-1-yl)-thiazol-4-one] | 2.8 nM |
| O=C1N=C(N2CCN[C@@H](CO)C2)S/C1=C\c1ccc2c(cnn2Cc2ccc(F)cc2C(F)(F)F)c1 [Example 178, 5-[1-(4-Fluoro-2-trifluoromethyl-benzyl)-1H-indazol-5-ylmethylene]-2-((3R)-3-hydroxymethyl-piperazin-1-yl)-thiazol-4-one] | 52 nM |
| CS(=O)(=O)NC1CCN(C2=NC(=O)/C(=C/c3ccc4c(cnn4Cc4ccc(C(F)(F)F)cc4C(F)(F)F)c3)S2)CC1 [Example 120, N-(1-{5-[1-(2,4-Bis-trifluoromethyl-benzyl)-1H-indazol-5-ylmethylene]-4-oxo-4,5-dihydro-thiazol-2-yl}-piperidin-4-yl)-methanesulfonamide] | 27 nM |
| CS(=O)(=O)NC1CCN(C2=NC(=O)/C(=C/c3ccc4c(cnn4Cc4ccc(Cl)cc4C(F)(F)F)c3)S2)CC1 [Example 111, N-(1-{5-[1-(4-Chloro-2-trifluoromethyl-benzyl)-1H-indazol-5-ylmethylene]-4-oxo-4,5-dihydro-thiazol-2-yl}-piperidin-4-yl)-methanesulfonamide] | 6.9 nM |
| CN1C2CCC1CN(C1=NC(=O)/C(=C/c3ccc4c(cnn4Cc4ccc(C(F)(F)F)cc4C(F)(F)F)c3)S1)C2 [Example 103, 5-[1-(2,4-Bis-trifluoromethyl-benzyl)-1H-indazol-5-ylmethylene]-2-(8-methyl-3,8-diaza-bicyclo[3.2.1]oct-3-yl)-thiazol-4-one] | 12.2 nM |
| O=C1N=C(N2CCN[C@@H](CO)C2)S/C1=C\c1ccc2c(cnn2Cc2ccc(O)cc2C(F)(F)F)c1 [Example 250, 2-[(3R)-3-(Hydroxymethyl)piperazin-1-yl]-5-({1-[4-hydroxy-2-(trifluoromethyl)benzyl]-1H-indazol-5-yl}methylidene)-1,3-thiazol-4(5H)-one] | 190 nM |
| CN1CCN(C2=NC(=O)/C(=C/c3ccc4c(cnn4Cc4ccc(Cl)cc4C4CC4)c3)S2)CC1 [Example 93, 5-[1-(4-Chloro-2-cyclopropyl-benzyl)-1H-indazol-5-ylmethylene]-2-(4-methyl-piperazin-1-yl)-thiazol-4-one] | 14.4 nM |
| N[C@@H]1CCCN(C2=NC(=O)/C(=C/c3ccc4c(cnn4Cc4ccc(Cl)cc4C(F)(F)F)c3)S2)C1 [Example 59, 2-(3-(R)-Amino-piperidin-1-yl)-5-[1-(4-chloro-2-trifluoromethyl-benzyl)-1H-indazol-5-ylmethylene]-thiazol-4-one] | 23 nM |
| O=C(O)CN1CCN(C2=NC(=O)/C(=C/c3ccc4c(cnn4Cc4ccc(Cl)cc4C(F)(F)F)c3)S2)CC1 [Example 117] | 8.3 nM |
| CN1CCN(C2=NC(=O)/C(=C/c3ccc4c(cnn4Cc4ccc(C(C)(C)O)cc4Cl)c3)S2)CC1 [Example 232, 5-({1-[2-Chloro-4-(1-hydroxy-1-methylethyl)benzyl]-1H-indazol-5-yl}methylidene)-2-(4-methylpiperazin-1-yl)-1,3-thiazol-4(5H)-one] | 795 nM |
| Cc1nn(Cc2ccc(Cl)cc2C(F)(F)F)c2ccc(/C=C3\SC(N4CCN(C)C(C)(C)C4)=NC3=O)cc12 [Example 278, 5-({1-[4-Chloro-2-(trifluoromethyl)benzyl]-3-methyl-1H-indazol-5-yl}methylidene)-2-(3,3,4-trimethylpiperazin-1-yl)-1,3-thiazol-4(5H)-one] | 17 nM |
| CN1CCN(C2=NC(=O)/C(=C/c3ccc4c(cnn4Cc4ccc(Cl)cc4C(F)(F)F)c3)S2)C[C@@H]1CO [Example 196, 5-({1-[4-Chloro-2-(trifluoromethyl)benzyl]-1H-indazol-5-yl}methylidene)-2-[3-(R)-(hydroxymethyl)-4-methylpiperazin-1-yl]-1,3-thiazol-4(5H)-one] | 16 nM |
| CS(=O)(=O)c1ccc(Cn2ncc3cc(/C=C4\SC(N5CCNC(=O)C5)=NC4=O)ccc32)c(Cl)c1 [Compound 18, 4-{5-[1-(2-Chloro-4-methanesulfonyl-benzyl)-1H-indazol-5-ylmethylene]-4-oxo-4,5-dihydro-thiazol-2-yl}-piperazin-2-one] | > 4000 nM |
| O=C1N=C(N2CCC(n3cnnn3)CC2)S/C1=C\c1ccc2c(cnn2Cc2ccc(Cl)cc2C(F)(F)F)c1 [Example 150, 5-[1-(4-Chloro-2-trifluoromethyl-benzyl)-1H-indazol-5-ylmethylene]-2-(4-tetrazol-1-yl-piperidin-1-yl)-thiazol-4-one] | 48 nM |
| COc1ccc(Cn2ncc3cc(/C=C4\SC(N5CCN[C@@H](CO)C5)=NC4=O)ccc32)c(C(F)(F)F)c1 [Example 248, 2-[3-(R)-(Hydroxymethyl)piperazin-1-yl]-5-({1-[4-methoxy-2-(trifluoromethyl)benzyl]-1H-indazol-5-yl}methylidene)-1,3-thiazol-4(5H)-one] | 14 nM |
| N#Cc1nn(Cc2ccc(Cl)cc2C(F)(F)F)c2ccc(/C=C3\SC(N4CCN(CC5CC5)CC4)=NC3=O)cc12 [Example 224, 1-[4-Chloro-2-(trifluoromethyl)benzyl]-5-({2-[4-(cyclopropylmethyl)piperazin-1-yl]-4-oxo-1,3-thiazol-5(4H)-ylidene}methyl)-1H-indazole-3-carbonitrile] | 70 nM |
| CC(C)(O)c1ccc(Cn2ncc3cc(/C=C4\SC(N5CCO[C@@H](CO)C5)=NC4=O)ccc32)c(Cl)c1 [Example 231, 5-({1-[2-Chloro-4-(1-hydroxy-1-methylethyl)benzyl]-1H-indazol-5-yl}methylidene)-2-[2-(R)-(hydroxymethyl)morpholin-4-yl]-1,3-thiazol-4(5H)-one] | 490 nM |
| C[C@@H]1CN(C2=NC(=O)/C(=C/c3ccc4c(cnn4Cc4ccc(C(C)(C)O)cc4C(F)(F)F)c3)S2)C[C@H](C)N1 [Example 243, 2-((3R,5S)-3,5-Dimethylpiperazin-1-yl)-5-({1-[4-(1-hydroxy-1-methylethyl)-2-(trifluoromethyl)benzyl]-1H-indazol-5-yl}methylidene)-1,3-thiazol-4(5H)-one] | 38 nM |
| C[C@@H]1CN(C2CN(C3=NC(=O)/C(=C/c4ccc5c(cnn5Cc5ccc(C(F)(F)F)cc5C(F)(F)F)c4)S3)C2)C[C@H](C)O1 [Example 202, 5-({1-[2,4-Bis(trifluoromethyl)benzyl]-1H-indazol-5-yl}methylidene)-2-[3-(2,6-cis-dimethylmorpholin-4-yl)azetidin-1-yl]-1,3-thiazol-4(5H)-one] | 59.7 nM |
| O=C1N=C(N2CCC(n3ccnc3)CC2)S/C1=C\c1ccc2c(cnn2Cc2ccc(Cl)cc2C(F)(F)F)c1 [Example 159, 5-[1-(4-Chloro-2-trifluoromethyl-benzyl)-1H-indazol-5-ylmethylene]-2-(4-imidazol-1-yl-piperidin-1-yl)-thiazol-4-one] | 36 nM |
